Assay: xn = mol fraction of the nth substance listed
Conditions: Liquid, Bellows volumetry

CCCC [butane] + O=C=O
mass density [kg/m3]
Conditions | 280 K | 300 K | 320 K | 340 K | 360 K | 380 K | 400 K | 420 K | 440 K
3000 kPa, x2 = 0.2322 | 630.31 | – | – | – | – | – | – | – | –
5000 kPa, x2 = 0.2322 | 633.96 | – | 575.82 | – | – | – | – | – | –
5000 kPa, x2 = 0.4794 | 680.75 | 639.52 | – | – | – | – | – | – | –
5000 kPa, x2 = 0.715 | 743.91 | – | – | – | – | – | – | – | –
10000 kPa, x2 = 0.2322 | 642.11 | – | 589.62 | – | 527.83 | – | 446.86 | – | –
10000 kPa, x2 = 0.4794 | 692.87 | 657.02 | 616.31 | 569.54 | 511.93 | – | – | – | –
10000 kPa, x2 = 0.715 | 764.37 | – | 634.09 | – | – | – | – | – | –
20000 kPa, x2 = 0.2322 | 656.07 | – | 611.12 | – | 561.64 | – | 507.96 | – | 450.53
20000 kPa, x2 = 0.4794 | 712.84 | 682.52 | 650.15 | 616.43 | 580.87 | 542.77 | 502.33 | – | –
20000 kPa, x2 = 0.715 | 794.78 | – | 700.42 | – | 589.3 | – | – | – | –
30000 kPa, x2 = 0.2322 | 667.86 | – | 627.12 | – | 584.81 | – | 540.33 | – | 495.88
30000 kPa, x2 = 0.4794 | 728.81 | 701.65 | 674.04 | 645.49 | 616.95 | 587.13 | 556.87 | 526.92 | 497.45
30000 kPa, x2 = 0.715 | 817.62 | – | 738.09 | – | 653.81 | – | 566.01 | – | –
40000 kPa, x2 = 0.2322 | 678.47 | – | 640.44 | – | 602.48 | – | 563.25 | – | 525.21
40000 kPa, x2 = 0.4794 | 742.52 | 717.56 | 692.66 | 667.35 | 642.35 | 616.84 | 591.24 | 566.28 | 541.84
40000 kPa, x2 = 0.715 | 836.27 | – | 765.65 | – | 694.03 | – | 621.7 | – | 554.08
50000 kPa, x2 = 0.2322 | 687.34 | – | 652.04 | – | 616.98 | – | 581.4 | – | 547.37
50000 kPa, x2 = 0.4794 | 754.67 | 731.07 | 708.18 | 685.08 | 662.49 | 639.71 | 616.85 | 595.02 | 573.48
50000 kPa, x2 = 0.715 | 852 | – | 787.84 | – | 724.09 | – | 660.78 | – | 601.28
60000 kPa, x2 = 0.2322 | 695.74 | – | 662.33 | – | 629.59 | – | 596.43 | – | 565.31
60000 kPa, x2 = 0.4794 | 764.81 | 742.9 | 721.35 | 700 | 679.22 | 658.27 | 637.36 | 617.32 | 597.98
60000 kPa, x2 = 0.715 | 866.13 | – | 806.49 | – | 747.95 | – | 690.23 | – | 637.06
70000 kPa, x2 = 0.2322 | 703.24 | – | 671.53 | – | 640.64 | – | 609.35 | – | 580.32
70000 kPa, x2 = 0.4794 | 774.33 | 753.65 | 733.06 | 713.41 | 693.75 | 674.23 | 654.78 | 635.97 | 618.26
70000 kPa, x2 = 0.715 | 878.47 | – | 822.63 | – | 768.11 | – | 714.95 | – | 665.83
80000 kPa, x2 = 0.2322 | 710.1 | – | 679.91 | – | 650.47 | – | 620.59 | – | 593.42
80000 kPa, x2 = 0.4794 | 783.23 | 763.35 | 744.07 | 724.94 | 706.48 | 687.97 | 669.8 | 652.07 | 635.67
80000 kPa, x2 = 0.715 | 890.87 | – | 836.62 | – | 785.74 | – | 735.73 | – | 689.85
90000 kPa, x2 = 0.2322 | 716.71 | – | 687.47 | – | 659.56 | – | 631 | – | 605.1
90000 kPa, x2 = 0.4794 | 791.49 | 772.13 | 753.75 | 735.81 | 717.86 | 700.34 | 682.95 | 666.23 | 651.02
90000 kPa, x2 = 0.715 | 901.14 | – | 849.86 | – | 801.06 | – | 753.9 | – | 710.59
100000 kPa, x2 = 0.2322 | 723.23 | – | 694.73 | – | 667.72 | – | 640.36 | – | 615.81
100000 kPa, x2 = 0.4794 | 798.9 | 780.58 | 762.74 | 745.33 | 728.39 | 711.49 | 695.05 | 678.91 | 664.29
100000 kPa, x2 = 0.715 | 910.69 | – | 861.47 | – | 815.17 | – | 770.02 | – | 728.79
120000 kPa, x2 = 0.2322 | 734.32 | – | 707.88 | – | 683.01 | – | 657.01 | – | 634.32
120000 kPa, x2 = 0.4794 | 812.9 | 795.54 | 778.9 | 762.5 | 747.06 | 731.12 | 716.06 | 701.1 | 687.84
120000 kPa, x2 = 0.715 | 928.62 | – | 882.45 | – | 839.59 | – | 797.97 | – | 759.95
140000 kPa, x2 = 0.2322 | 744.8 | – | 719.63 | – | 695.82 | – | 671.62 | – | 650.31
140000 kPa, x2 = 0.4794 | 825.4 | 809.12 | 793 | 777.74 | 763.38 | 748.2 | 734.23 | 719.99 | 707.66
140000 kPa, x2 = 0.715 | 944.48 | – | 900.69 | – | 861.07 | – | 821.54 | – | 786.09
160000 kPa, x2 = 0.2322 | 754.11 | – | 730.08 | – | 707.43 | – | 684.45 | – | 664.25
160000 kPa, x2 = 0.4794 | 836.77 | 820.91 | 805.87 | 791.24 | 777.86 | 763.43 | 749.98 | 736.74 | 724.96
160000 kPa, x2 = 0.715 | 958.48 | – | 917.22 | – | 878.95 | – | 841.99 | – | 808.63
180000 kPa, x2 = 0.2322 | 762.53 | – | 739.97 | – | 718.38 | – | 696.37 | – | 676.7
180000 kPa, x2 = 0.4794 | 847.4 | 832.12 | 817.41 | 803.57 | 790.57 | 776.93 | 764.27 | 751.63 | 740.16
180000 kPa, x2 = 0.715 | 971.36 | – | 931.83 | – | 895.71 | – | 860.22 | – | 828.38
200000 kPa, x2 = 0.2322 | 770.7 | – | 748.41 | – | 727.81 | – | 706.63 | – | 688.15
200000 kPa, x2 = 0.4794 | 856.48 | 842.22 | 828.26 | 815.1 | 802.28 | 789.44 | 777.01 | 764.81 | 754.38
200000 kPa, x2 = 0.715 | 983.53 | – | 945.52 | – | 910.63 | – | 876.67 | – | 846.42
